From US20010039291A1, “Compositions and methods of treatment for cancer or viral infections” (The Procter & Gamble Company, priority 1995, published 2001) come the findings set out here.

Converted amounts (≈) assume the structure as drawn.

One assay concerns Rhinovirus, type A-1. Put plainly: In vitro screening for Rhinovirus. It is filed as cell-based. The settings on record: cell line WI-38. From the text: The positive control was A-36683 of Abbot Company, (S,S)-1,2-bis(5-methoxy-2-benzimidazolyl)-1,2-ethanediol. […] (See Schleicher et al, Applied Microbiology, 23, No. 1, 113-116 (1972).
In the next assay the test system is HT29 colon tumor cells. Briefly: MTT cell viability test, colon tumor cells. The settings on record: Homo sapiens, HT-29, 120 h, about 5 day incubation, read-out: EC-50 Result. The assay is classed as cell-based. In general terms: Tetrazolium dyes change colour on reduction, which living cells bring about.
For the next assay, the system named is A549 lung tumor cells. Put plainly: MTT cell viability test, lung tumor cells. The assay is classed as cell-based. The settings on record: Homo sapiens, 120 h, about 5 day incubation, read-out: EC-50 Result.
A further assay concerns MX1 breast cells. Briefly: MTT cell viability test, breast tumor cells. It is filed as cell-based. As to conditions: Homo sapiens, 120 h, about 5 day incubation, read-out: EC-50 Result.
For assay [1], the system named is Human influenza virus, strain AT2/Taiwan/1/64. Briefly: Anti-viral evaluation with human influenza virus in mice. The settings on record: oral lavage, observed 21 days after challenge. It is filed as in vivo.
For assay [2], the system named is human tumor colony forming units. Put plainly: In vitro human tumor colony forming units test. It is filed as cell-based. The settings on record: for effectiveness against tumor types / tumors with ≦50% survival: continuous exposure. On the procedure: Solid tumors removed by patients are minced into 2 to 5 mm fragments and immediately placed in McCoy's Medium 5A plus 10% heat inactivated newborn calf serum plus 1% penicillin/streptomycin. Within 4 hours, these solid tumors are mechanically disassociated with scissors, forced through No. 100 stainless steel mesh, through 25 gauge needles, and then washed with McCoy's medium as described above. Ascitic, pleural, pericardial fluids and bone marrow are obtained by standard techniques. The fluid or marrow is placed in sterile containers containing 10 units of preservative free heparin per ml. of malignant fluid or marrow. After centrifugation at 150×g for 10 minutes, the cells are harvested and washed with McCoy's medium plus 10% heat inactivated calf serum. The viability of cell suspensions is determined on a hemocytometer with trypan blue.
Cells to be cloned are suspended in 0.3% agar in enriched CMRL1066 supplemented with 15% heat inactivated horse serum, penicillin (100 units/ml), streptomycin (2 mg/ml), glutamine (2 mM), insulin (3 units/ml), asparagine (0.6 mg/ml), and HEPES buffer (2 mM). For the continuous exposure test each compound is added to the above mixture. Cells are placed in 35 mm petri dishes in a top layer of agar over an underlayer of agar to prevent growth of fibroblasts. Three plates are prepared for each data point. The plates are placed in a 37° C. incubator, and are removed on day 14 for counting of the number of colonies in each plate. The number of colonies (defined as 50 cells) formed in the 3 compound treated plates is compared to the number of colonies formed in the 3 control plates, and the percent colonies surviving at the concentration of compound can be estimated. Three positive control plates are used to determine survival rate. Orthosodium vanadate at 200 μg/ml is used as the positive control. If there is <30% colonies in the positive control when compared to the untreated control, the test is evaluated.

Turning to `COc1ccc2nc([C@H](O)[C@@H](O)c3nc4ccc(OC)cc4[nH]3)[nH]c2c1` [A-36683, (S,S)-1,2-bis(5-methoxy-2-benzimidazolyl)-1,2-ethanediol, reference compound], the “therapeutic index (ratio of the toxic dose to the efficacious dose)” value in the assay with Rhinovirus, type A-1 is listed as 1000-3200.
As to `COc1cccc2c1C(=O)c1c(O)c3c(c(O)c1C2=O)C[C@@](O)(C(=O)CO)C[C@@H]3O[C@H]1C[C@H](N)[C@H](O)[C@H](C)O1` [Adriamycin, reference compound], the EC50 in the assay with HT29 colon tumor cells was 0.00639 mg/L (≈ 0.0118 µM); with A549 lung tumor cells it was 0.00373 mg/L (≈ 0.00686 µM); with MX1 breast cells, 0.00078 mg/L (≈ 0.00144 µM).
Regarding `CCCC1COC(Cn2cncn2)(c2ccc(Cl)cc2Cl)O1` (centres unmarked) [Propiconazole, 1-[2-(2,4-dichlorophenyl)4-propyl-1,3-dioxolan-2-ylmethyl]-1H-1,2,4-triazole], the mice survived was 40% in assay [1] (175 mg/kg dose, saline control no mice survived) and 57% in assay [1] (350 mg/kg dose). Further, the EC50 amounted to 0.0331 mg/L (≈ 0.0967 µM) in the assay with HT29 colon tumor cells, 0.113 mg/L (≈ 0.33 µM) with A549 lung tumor cells and 0.0284 mg/L (≈ 0.083 µM) in the assay with MX1 breast cells. Further, the effectiveness against tumors entry in assay [2] (0.5 μg/ml, continuous exposure test) is given as “not effective”. Moreover, the “tumors responding (effective/tested)” value in assay [2] (0.5 μg/ml, single dose experiment) is reported as 0/1. The “effectiveness against tumor types” value is “effective against breast, head and neck, melanoma and ovarian cancers” in assay [2] (5.0 μg/ml); “effective against breast, colon, head and neck, lung (non-small cell), melanoma, ovarian, stomach, and uterine cancers” in assay [2] (50.0 μg/ml). For the same molecule, the “tumors with ≦50% survival” value in assay [2] (5.0 μg/ml) is given as 5 of 26; in assay [2] (50.0 μg/ml), 18 of 25. The effective concentration in the assay with Rhinovirus, type A-1 is 32 µg/mL. The “therapeutic index (ratio of the toxic dose to the efficacious dose)” value in the assay on Rhinovirus, type A-1 is recorded as 1-3.
